According to ChEMBL document CHEMBL1201862, “PubChem BioAssay data set” (2004):
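Method: 48-hour compound exposure of cells in 96-well plates, five concentrations, linear interpolation of endpoints. GI50: concentration for 50% inhibition of growth.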 Activity calls are given as the source filed them. Rule as the data show it: active = GI50 up to about 1.1 µM and inactive = higher.

Experiments:
Assay in all cases: DTP human tumour cell line panel, 48 h
786-0 = tested on: 786-0
A549 = tested on: A549
BT-549 = tested on: BT-549
COLO 205 = tested on: COLO 205
HOP-92 = tested on: HOP-92
IGROV-1 = tested on: IGROV-1
MDA-MB-231 = tested on: MDA-MB-231
MDA-MB-435 = tested on: MDA-MB-435
NCI-H23 = tested on: NCI-H23
NCI-H460 = tested on: NCI-H460
OVCAR-3 = tested on: OVCAR-3
OVCAR-8 = tested on: OVCAR-8
SF-268 = tested on: SF-268
SK-MEL-28 = tested on: SK-MEL-28
SK-MEL-2 = tested on: SK-MEL-2
SK-OV-3 = tested on: SK-OV-3
SNB-75 = tested on: SNB-75
HCC 2998 = tested on: HCC 2998
PC-3 = tested on: PC-3
SNB-19 = tested on: SNB-19

`COC(=O)C[C@H]1[C@]2(C)C3=C(C)[C@H](c4ccoc4)CC3O[C@@H]2[C@@H]2OC(=O)[C@]3(C)CCC(=O)[C@@]1(C)[C@@H]23` (stereo partly drawn) was tested, and the GI50 (786-0) was 32.3 µM (inactive), the GI50 (A549) was 47.1 µM (inactive) and the GI50 (BT-549) was 51.5 µM (inactive). The GI50 (COLO 205) was 62.8 µM (inactive), the GI50 (HOP-92) was > 100 µM (inactive) and the GI50 (IGROV-1) was 71.3 µM (inactive). The GI50 (MDA-MB-231) was > 100 µM (inactive), the GI50 (MDA-MB-435) was 37.2 µM (inactive) and the GI50 (NCI-H23) was 46.5 µM (inactive). The GI50 (NCI-H460) was > 100 µM (inactive), the GI50 (OVCAR-3) was 53 µM (inactive) and the GI50 (OVCAR-8) was 44.8 µM (inactive). For the same compound, the GI50 (SF-268) was 48 µM (inactive), the GI50 (SK-MEL-28) was 32.5 µM (inactive) and the GI50 (SK-MEL-2) was > 100 µM (inactive). The GI50 (SK-OV-3) was > 100 µM (inactive) and the GI50 (SNB-75) was 42.8 µM (inactive).
For `CN(C)/C=C/c1nnc([N+](=O)[O-])s1`, the GI50 (786-0) was 11.3 µM (inactive), the GI50 (A549) was 19.9 µM (inactive) and the GI50 (BT-549) was 17.9 µM (inactive). For the same compound, the GI50 (COLO 205) was 3.58 µM (inactive), the GI50 (HCC 2998) was 17.3 µM (inactive) and the GI50 (MDA-MB-231) was 18.2 µM (inactive). The GI50 (MDA-MB-435) was 3.69 µM (inactive), the GI50 (NCI-H23) was 19.3 µM (inactive) and the GI50 (NCI-H460) was 11.6 µM (inactive). The GI50 (OVCAR-3) was 2.65 µM (inactive), the GI50 (OVCAR-8) was 17.1 µM (inactive) and the GI50 (PC-3) was 4.95 µM (inactive). For the same compound, the GI50 (SF-268) was 14.6 µM (inactive), the GI50 (SK-MEL-2) was 17.2 µM (inactive) and the GI50 (SK-OV-3) was 20.7 µM (inactive). For the same compound, the GI50 (SNB-19) was 26.3 µM (inactive) and the GI50 (SNB-75) was 23.9 µM (inactive).
In the case of `Cc1cc(=O)[nH]c2c1C(=O)c1c(C)cc(=O)n(C)c1C2=O`, the GI50 (786-0) is reported as 0.0545 µM (active), the GI50 (A549) is reported as 0.188 µM (active) and the GI50 (BT-549) is reported as 0.0228 µM (active). The GI50 (COLO 205) was 0.0162 µM (active), the GI50 (HCC 2998) was 0.0261 µM (active) and the GI50 (IGROV-1) was 0.202 µM (active). For the same compound, the GI50 (MDA-MB-231) was 0.303 µM (active), the GI50 (MDA-MB-435) was 0.0142 µM (active) and the GI50 (NCI-H23) was 0.0142 µM (active). For the same compound, the GI50 (NCI-H460) was 0.187 µM (active), the GI50 (OVCAR-3) was 0.0508 µM (active) and the GI50 (OVCAR-8) was 0.0832 µM (active). For the same compound, the GI50 (PC-3) was 0.157 µM (active), the GI50 (SF-268) was 0.129 µM (active) and the GI50 (SK-MEL-28) was 0.0191 µM (active). For the same compound, the GI50 (SK-MEL-2) was 0.0208 µM (active), the GI50 (SK-OV-3) was 0.182 µM (active) and the GI50 (SNB-19) was 0.0185 µM (active). For the same compound, the GI50 (SNB-75) was 0.0176 µM (active).
In the case of `COC1(OC)CC(CO)(CNc2cc(Cl)nc(N)n2)C1`, the GI50 (786-0) is reported as > 100 µM (inactive), the GI50 (A549) is reported as > 100 µM (inactive) and the GI50 (BT-549) is reported as > 100 µM (inactive). The GI50 (COLO 205) was > 100 µM (inactive), the GI50 (HCC 2998) was > 100 µM (inactive) and the GI50 (HOP-92) was > 10 µM (inactive). For the same compound, the GI50 (IGROV-1) was > 100 µM (inactive), the GI50 (MDA-MB-231) was > 100 µM (inactive) and the GI50 (MDA-MB-435) was > 100 µM (inactive). For the same compound, the GI50 (NCI-H23) was > 100 µM (inactive), the GI50 (NCI-H460) was > 100 µM (inactive) and the GI50 (OVCAR-3) was > 100 µM (inactive). The GI50 (OVCAR-8) was > 100 µM (inactive), the GI50 (PC-3) was > 100 µM (inactive) and the GI50 (SF-268) was > 100 µM (inactive). For the same compound, the GI50 (SK-MEL-28) was > 100 µM (inactive), the GI50 (SK-MEL-2) was > 100 µM (inactive) and the GI50 (SK-OV-3) was > 100 µM (inactive). For the same compound, the GI50 (SNB-19) was > 100 µM (inactive).
For `COc1cc(C[C@@H](C)N)cc(OC)c1`, the GI50 (786-0) was > 100 µM (inactive), the GI50 (A549) was > 100 µM (inactive) and the GI50 (BT-549) was > 100 µM (inactive). For the same compound, the GI50 (COLO 205) was > 100 µM (inactive), the GI50 (HCC 2998) was > 100 µM (inactive) and the GI50 (IGROV-1) was > 100 µM (inactive). The GI50 (MDA-MB-231) was > 100 µM (inactive), the GI50 (MDA-MB-435) was > 100 µM (inactive) and the GI50 (NCI-H23) was > 100 µM (inactive). The GI50 (NCI-H460) was > 100 µM (inactive), the GI50 (OVCAR-3) was > 100 µM (inactive) and the GI50 (OVCAR-8) was > 100 µM (inactive). For the same compound, the GI50 (PC-3) was > 100 µM (inactive), the GI50 (SF-268) was > 100 µM (inactive) and the GI50 (SK-MEL-28) was > 100 µM (inactive). The GI50 (SK-MEL-2) was > 100 µM (inactive), the GI50 (SK-OV-3) was > 100 µM (inactive) and the GI50 (SNB-19) was > 100 µM (inactive). The GI50 (SNB-75) was 21.8 µM (inactive).
In the case of `CSc1cccc(NC(=O)OC2CCCCCCCCCCC2)c1`, the GI50 (786-0) is reported as 20.9 µM (inactive), the GI50 (A549) is reported as 26.9 µM (inactive) and the GI50 (BT-549) is reported as 34.8 µM (inactive). For the same compound, the GI50 (COLO 205) was 14.5 µM (inactive), the GI50 (HOP-92) was 27.4 µM (inactive) and the GI50 (IGROV-1) was 33.4 µM (inactive). For the same compound, the GI50 (MDA-MB-231) was 23.6 µM (inactive), the GI50 (MDA-MB-435) was 15.7 µM (inactive) and the GI50 (NCI-H23) was 24.4 µM (inactive). The GI50 (NCI-H460) was 16.4 µM (inactive), the GI50 (OVCAR-3) was 10.5 µM (inactive) and the GI50 (OVCAR-8) was 26.7 µM (inactive). The GI50 (PC-3) was 31 µM (inactive), the GI50 (SF-268) was 29.8 µM (inactive) and the GI50 (SK-MEL-28) was 39.7 µM (inactive). For the same compound, the GI50 (SK-MEL-2) was 18.4 µM (inactive), the GI50 (SK-OV-3) was 16.6 µM (inactive) and the GI50 (SNB-19) was 37.5 µM (inactive). The GI50 (SNB-75) was 35.2 µM (inactive).
`CCCNC(=O)c1cc(OC)c(OC)cc1NC(=O)C12CC3CC(CC(C3)C1)C2` was tested, and the GI50 (786-0) was 17 µM (inactive), the GI50 (A549) was 17.1 µM (inactive) and the GI50 (BT-549) was 16.7 µM (inactive). For the same compound, the GI50 (COLO 205) was 24.3 µM (inactive), the GI50 (HOP-92) was 18.3 µM (inactive) and the GI50 (IGROV-1) was 22.9 µM (inactive). The GI50 (MDA-MB-231) was 16.9 µM (inactive), the GI50 (MDA-MB-435) was 17.9 µM (inactive) and the GI50 (NCI-H23) was 16.8 µM (inactive). For the same compound, the GI50 (NCI-H460) was 20.6 µM (inactive), the GI50 (OVCAR-3) was 19 µM (inactive) and the GI50 (OVCAR-8) was 23.7 µM (inactive). For the same compound, the GI50 (PC-3) was 17.3 µM (inactive), the GI50 (SF-268) was 17.6 µM (inactive) and the GI50 (SK-MEL-28) was 16.1 µM (inactive). The GI50 (SK-MEL-2) was 15.5 µM (inactive) and the GI50 (SNB-19) was 16.4 µM (inactive).
For `O=C1C(NCCc2ccc(O)c([N+](=O)[O-])c2)=CC(=O)c2[nH]cnc21`, the GI50 (786-0) was 47.2 µM (inactive), the GI50 (A549) was 28.6 µM (inactive) and the GI50 (BT-549) was > 10 µM (inactive). For the same compound, the GI50 (COLO 205) was 43.8 µM (inactive), the GI50 (HCC 2998) was 51.5 µM (inactive) and the GI50 (IGROV-1) was 29.9 µM (inactive). The GI50 (MDA-MB-231) was 22.7 µM (inactive), the GI50 (MDA-MB-435) was 18.6 µM (inactive) and the GI50 (NCI-H23) was 17.1 µM (inactive). The GI50 (NCI-H460) was 24.8 µM (inactive), the GI50 (OVCAR-3) was 15.2 µM (inactive) and the GI50 (OVCAR-8) was 25 µM (inactive). The GI50 (PC-3) was 67 µM (inactive), the GI50 (SK-MEL-28) was 14.3 µM (inactive) and the GI50 (SK-MEL-2) was 16 µM (inactive). The GI50 (SNB-19) was 89.5 µM (inactive).
